Reference: US8546377B2 (AbbVie Inc., priority 2009, dated 2013)

Experiments:
[1] = molecular target: T1, 5HT2B receptors (Homo sapiens, UniProt P41595); assay: Human 5-HT2B functional assay in CHO-K1 cells (calcium flux, FLIPR); type: cell-based; details: CHO-K1 cells over-expressing 5HT2B, calcium flux; read-out: EC50 (μM), 5-HT2B Agonist Activity
T1 construct: expressed in transfected cells; host or cells: CHO-K1 cells
Method in brief: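 EC50 came from a 4-parameter logistic fit, with Emax expressed relative to serotonin, of intracellular Ca2+ rises read on FLIPR at 480/530 nm, 25° C, over 3 min. Compounds ran from 10 μM in six 1:10 steps (0.2% DMSO) on serum-starved CHO-K1 transfectants pre-loaded 60 min with Ca4 dye and probenecid.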

[2] = molecular target: T2, h-5-HT6 receptor (Homo sapiens, UniProt P50406); assay: Human 5-HT6 receptor radioligand binding assay ([3H]-LSD, HEK293 membranes); details: HEK293 membranes, 1 nM [3H]-lysergic acid diethylamide, 3.5 hours at room temperature; read-out: Ki (μM), 5-HT6 Agonist Site Radioligand Binding
T2 construct: expressed in transfected cells; host or cells: HEK293 cells (membrane preparation)
Procedure: (iv) Human 5-HT6 Receptor Radioligand Binding Assay
Preparation of Membranes by Ultrasonic Treatment and Differential Centrifugation
Cells from stable clonal cell lines expressing the corresponding receptor (5-HT6) were washed with PBS (without Ca^++, Mg^++) and harvested in PBS with 0.02% EDTA. The cells were collected by centrifugation at 500 g for 10 minutes at 4° C., washed with PBS and centrifuged (500 g, 10 minutes at 4° C.). The pellets were stored at −80° C. until use. For membrane preparation, the thawed cell pellet was resuspended in ice-cold sucrose buffer (0.25 M sucrose, 10 mM HEPES (pH 7.4), 1 mM phenylmethylsulfonyl fluoride (PMSF) in DMSO, 5 μg/ml Pepstatin-A, 3 mM EDTA, 0.025% Bacitracin) and homogenized with a Branson Sonifier W-250 (Settings: Timer 4; Output Control 3; Duty Cycle constant; 2 to 3 cycles). Cell disruption was checked with the aid of a microscope. Remaining unbroken cells were pelleted at 1,000 g for 10 minutes at 4° C. The sucrose buffer supernatant was then centrifuged at 60,000 g for 1 hour at 4° C. (Beckman Ultrazentrifuge XL 80). The pellet was resuspended in 30 mL of ice-cold Tris buffer (20 mM TRIS (pH 7.4), 5 μg/mL Pepstatin A, 0.1 mM PMSF, 3 mM EDTA) by pipetting through a 10 mL serological pipet and centrifuged for 1 hour at 4° C. at 60,000 g. A final resuspension was performed in a small volume of ice-cold Tris buffer (see above) by pressing through a serological pipet followed by ultrasonic treatment with a Branson Sonifier W-250 (Settings: Timer 1; Output Control 3; Duty Cycle constant; 1 cycle). Protein concentration was determined (BCA-Kit; Pierce) and aliquots stored at −80° C. or in liquid nitrogen for long-term storage.
Receptor Binding Experiments
All receptor binding experiments were carried out in the corresponding assay buffer in a total volume of 200 μL in the presence of various concentrations of test compound (10^−5 M to 10^−9 M, tenfold serial dilution, duplicate determinations). The assays were terminated by filtration on polyethylenimine (PEI 0.1% or 0.3%) presoaked Packard Unifilter Plates (GF/C or GF/B) with a Tomtec MachIII U 96 well-plate harvester. After the plates had been dried for 2 hours at 55° C. in a drying chamber scintillation cocktail (BetaPlate Scint; PerkinElmer) was added. Radioactivity was measured in a Microbeta Trilux two hours after the addition of the scintillation mixture.
5-HT6 Receptor Binding Assay
HEK293 cells stably expressing the h-5-HT6 receptor (NCBI Reference Sequence XM 001435) were cultured in RPMI1640 medium supplemented with 25 mM HEPES, 10% fetal calf serum and 1-2 mM glutamine. The membrane preparation was performed as described above. […] On the day of the assay, the membranes were thawed, diluted in assay buffer (50 mM Tris-HCl, 5 mM CaCl2, 0.1% ascorbic acid, 10 μM pargyline, pH 7.4) to a concentration of 8 μg protein/assay and homogenized by gentle vortexing. […] Non-specific binding was defined with 1 μM methiothepin. The binding reaction was carried out for 3.5 hours at room temperature. During the incubation, the plates were shaken on a plate shaker at 100 rpm and terminated by filtration on Packard Unifilter GF/C (0.1% PEI) plates, followed by 2 wash cycles with ice-cold 50 mM Tris-HCl, 5 mM CaCl2.
Data derived from liquid scintillation counting were analyzed by iterative non-linear regression analysis with the use of the Statistical Analysis System (SAS): a program similar to “LIGAND” as described by Munson and Rodbard (Anal. Biochem. 1980, 107, 220-239). Fitting was performed according to formulae described by Feldman (Anal. Biochem. 1972, 48, 317-338). IC50, nH and Ki values were expressed as geometrical mean.
The results of the receptor binding studies are expressed as receptor binding constants Ki(5-HT6) as described herein before, and given in Table 5.

T1 sequence (P41595 whole entry): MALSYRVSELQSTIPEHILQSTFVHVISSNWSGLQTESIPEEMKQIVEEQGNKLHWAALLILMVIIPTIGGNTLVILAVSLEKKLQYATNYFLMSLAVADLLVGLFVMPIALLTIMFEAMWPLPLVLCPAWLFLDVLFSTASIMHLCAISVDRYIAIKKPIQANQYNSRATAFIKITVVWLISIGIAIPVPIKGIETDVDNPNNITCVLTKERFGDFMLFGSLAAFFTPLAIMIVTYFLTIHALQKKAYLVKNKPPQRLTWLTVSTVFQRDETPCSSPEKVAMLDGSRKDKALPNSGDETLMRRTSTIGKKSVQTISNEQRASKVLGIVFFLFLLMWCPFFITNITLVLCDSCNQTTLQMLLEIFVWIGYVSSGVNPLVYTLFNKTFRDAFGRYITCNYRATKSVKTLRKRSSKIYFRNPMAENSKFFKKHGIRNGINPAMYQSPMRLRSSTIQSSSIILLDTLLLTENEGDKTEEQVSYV
T2 sequence (P50406 whole entry): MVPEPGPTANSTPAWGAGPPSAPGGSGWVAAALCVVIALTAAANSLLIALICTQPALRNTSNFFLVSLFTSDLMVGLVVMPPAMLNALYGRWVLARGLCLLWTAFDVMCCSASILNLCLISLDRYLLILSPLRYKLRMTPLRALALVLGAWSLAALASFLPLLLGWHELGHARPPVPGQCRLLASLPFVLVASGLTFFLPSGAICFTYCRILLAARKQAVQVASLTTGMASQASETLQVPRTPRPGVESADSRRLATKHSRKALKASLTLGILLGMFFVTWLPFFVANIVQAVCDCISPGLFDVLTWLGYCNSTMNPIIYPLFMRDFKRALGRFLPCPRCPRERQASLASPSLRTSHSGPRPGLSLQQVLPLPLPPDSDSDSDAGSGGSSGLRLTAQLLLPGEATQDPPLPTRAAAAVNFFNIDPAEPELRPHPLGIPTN

EC50 [1]: > 10 µM | Ki [2]: 0.045 µM
Compound: O=C1NCC2CNCCN2c2ccc(NS(=O)(=O)c3ccccc3)cc21 (centres unmarked) [Example 48, N-(7-oxo-1,2,3,4,4a,5,6,7-octahydropyrazino[1,2-a][1,4]benzodiazepin-9-yl)benzenesulfonamide]
